“Also recorded” adds a separate entry of the source. Where a SMILES comes first, the peptide text is derived from it. The star is where a group is joined. Cbz = O=C(OCc1ccccc1)*
Key:
EGFR = biological target: T1, EGFR (Homo sapiens, UniProt P00533); test: EGFR degradation by Western blot in A549 lung carcinoma cells; type: cell-based; conditions: A549 cells treated with EGFR-TransTACs; 1 μM inhibitor
T1 construct: endogenous in cells; host or cells: A549
Procedure: Targeted therapy with tyrosine kinase inhibitors is a standard treatment for lung cancer with EGFR mutations. We reasoned that co-targeting an EGFR and a TfR receptor on lung cancer cells could lead to EGFR inhibition while maintaining high tumor specificity (FIG. 30A). We generated an anti-EGFR affibody*H7*GFLG-VR TransTAC. Incubation of the molecule with a human lung adenocarcinoma A549 cell line led to >90% EGFR degradation (FIG. 30B). […] This specificity results from higher TfR expression in tumor cells (FIG. 27A-C).
Next, we aimed to target epidermal growth factor receptor (EGFR), a receptor tyrosine kinase that plays an important role in the development and progression of various types of cancers such as lung and brain. An affibody (Friedman, Mikaela, et al. “Directed evolution to low nanomolar affinity of a tumor-targeting epidermal growth factor receptor-binding affibody molecule.” Journal of molecular biology 376.5, 2008: 1388-1402) was used to bind EGFR and create an EGFR-TransTAC.
We next investigated the cellular mechanism underlying TransTAC-mediated protein degradation. Two primary pathways involved in the degradation of cellular proteins were tested: the lysosomal pathway and the proteosome pathway. A549 cells were treated either with bafilomycin, a vacuolar proton pump inhibitor that inhibits lysosomal acidification, or MG132, a proteasomal inhibitor.

PC9-GR4 cells = test: MTT cell viability assay, PC9-GR4 cells; type: cell-based
PC9 GR4 C797S cells = test: MTT cell viability assay, PC9 GR4 C797S cells
CD20 = biological target: T2, CD20 (Homo sapiens, UniProt P11836); test: CD20 degradation in Raji cells; type: cell-based; conditions: Western blot
T2 construct: endogenous in cells; host or cells: Raji
T2 sequence (P11836 1-297): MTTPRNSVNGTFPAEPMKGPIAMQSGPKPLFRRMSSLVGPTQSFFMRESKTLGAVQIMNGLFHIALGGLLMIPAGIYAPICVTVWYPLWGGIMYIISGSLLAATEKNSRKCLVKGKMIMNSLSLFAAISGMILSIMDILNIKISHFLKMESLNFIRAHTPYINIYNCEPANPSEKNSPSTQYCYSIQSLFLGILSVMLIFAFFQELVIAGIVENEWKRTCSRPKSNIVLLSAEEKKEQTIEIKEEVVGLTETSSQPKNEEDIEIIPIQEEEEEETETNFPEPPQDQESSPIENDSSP
From the text: Cluster of differentiate 20 (CD20) is a B cell-specific surface marker with four transmembrane domains and an unknown function. Knocking down cell surface CD20s with a degrader can be valuable. A CD20-TransTAC was created using a Fab format of Rituximab, the first clinically approved CD20 antibody, to bind CD20.

T1 sequence (P00533 25-1210): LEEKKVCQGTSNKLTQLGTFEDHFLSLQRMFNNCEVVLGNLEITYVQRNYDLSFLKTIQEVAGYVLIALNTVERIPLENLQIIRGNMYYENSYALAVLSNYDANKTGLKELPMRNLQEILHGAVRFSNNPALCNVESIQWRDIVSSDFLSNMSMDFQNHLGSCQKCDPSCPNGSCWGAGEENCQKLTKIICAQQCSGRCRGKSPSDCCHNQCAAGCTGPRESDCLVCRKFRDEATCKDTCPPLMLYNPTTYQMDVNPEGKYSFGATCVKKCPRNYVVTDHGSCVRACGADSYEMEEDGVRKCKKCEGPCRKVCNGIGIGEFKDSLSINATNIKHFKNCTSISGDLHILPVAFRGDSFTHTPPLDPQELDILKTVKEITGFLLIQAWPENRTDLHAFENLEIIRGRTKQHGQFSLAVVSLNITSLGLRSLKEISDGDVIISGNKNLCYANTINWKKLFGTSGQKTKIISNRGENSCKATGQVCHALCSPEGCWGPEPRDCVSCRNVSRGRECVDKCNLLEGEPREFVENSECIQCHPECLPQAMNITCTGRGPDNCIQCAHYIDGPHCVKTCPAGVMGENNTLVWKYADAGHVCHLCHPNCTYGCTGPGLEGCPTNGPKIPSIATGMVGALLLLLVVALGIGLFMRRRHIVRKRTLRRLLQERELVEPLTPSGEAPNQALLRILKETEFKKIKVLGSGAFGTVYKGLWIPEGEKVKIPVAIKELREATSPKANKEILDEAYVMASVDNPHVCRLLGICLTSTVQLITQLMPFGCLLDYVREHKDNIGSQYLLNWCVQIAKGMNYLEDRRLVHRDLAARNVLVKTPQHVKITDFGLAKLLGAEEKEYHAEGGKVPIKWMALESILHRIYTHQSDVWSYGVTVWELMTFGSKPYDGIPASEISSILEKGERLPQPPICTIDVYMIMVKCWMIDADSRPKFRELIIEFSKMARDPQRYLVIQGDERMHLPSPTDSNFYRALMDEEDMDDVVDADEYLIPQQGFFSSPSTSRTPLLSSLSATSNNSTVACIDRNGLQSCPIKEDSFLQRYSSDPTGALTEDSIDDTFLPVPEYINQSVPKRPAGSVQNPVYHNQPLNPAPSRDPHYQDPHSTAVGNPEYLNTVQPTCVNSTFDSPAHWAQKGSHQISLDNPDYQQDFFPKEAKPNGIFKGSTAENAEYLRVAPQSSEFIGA

Molecule	effect of inhibitor on TransTAC-mediated EGFR degradation (EGFR)	IC50 (PC9-GR4 cells) [nM]	further results
CC(C)C[C@@H](C=O)NC(=O)[C@H](CC(C)C)NC(=O)[C@H](CC(C)C)NC(=O)OCc1ccccc1 [MG132] (Cbz-Leu-Leu-Leu-aldehyde)	sensitive; also recorded: much less significant effect	–	–
CN(C)C/C=C/C(=O)Nc1cc2c(Nc3ccc(F)c(Cl)c3)ncnc2cc1O[C@H]1CCOC1 [afatinib]	–	168	–
CO/C1=C\C(C)=C\[C@@H](C)[C@@H](O)[C@@H](C)C/C(C)=C/C=C/[C@H](OC)[C@@H]([C@@H](C)[C@@H](O)[C@H](C)[C@@]2(O)C[C@@H](O)[C@H](C)[C@@H](C(C)C)O2)OC1=O [bafilomycin]	sensitive; also recorded: prevented TransTAC-mediated EGFR degradation; also recorded: fully inhibited	–	–
C=CC(=O)Nc1cc(Nc2nccc(-c3cn(C)c4ccccc34)n2)c(OC)cc1N(C)CCN(C)C [osimertinib]	–	207	inhibition of cell viability (PC9 GR4 C797S cells): did not respond
rituximab-scFv-Fc control: rituximab scFv-Fc control without TfR binder	–	–	CD20 degradation (CD20): does not lead to significant CD20 degradation
